Experimental data published in patent US9204653B2, “5-fluoro pyrimidine derivatives” (DOW AGROSCIENCES LLC, priority 2008, dated 2015).
Like-named read-outs stand apart in the source and are kept apart here.

System: Mycosphaerella graminicola; Anamorph: Septoria tritici; Bayer Code SEPTTR
Assay: Leaf blotch of wheat, foliar fungicide treatment, one day protectant (1DP) or three day curative (3DC)
Type: in vivo, Septoria tritici on wheat plants (variety Yuma)
Details: Zymoseptoria tritici
[1] = 24 h, one day protectant (1DP), 25 ppm, percent disease control rating, read-out: SETTTR 1DP 25 ppm
[2] = 24 h, one day protectant (1DP), percent disease control rating, read-out: SEPTTR 1DP 100 ppm
[3] = 72 h, three day curative (3DC), 25 ppm, percent disease control rating, read-out: SEPTTR 3DC 25 ppm
[4] = 72 h, three day curative (3DC), percent disease control rating, read-out: SEPTTR 3DC 100 ppm
[5] = 24 h, one day protectant, 25 ppm, rating of percent disease control, read-out: SETTTR 1DP 25 ppm
[6] = 24 h, one day protectant, rating of percent disease control, read-out: SEPTTR 1DP 100 ppm
[7] = 72 h, three day curative, 25 ppm, rating of percent disease control, read-out: SEPTTR 3DC 25 ppm
[8] = 72 h, three day curative, rating of percent disease control, read-out: SEPTTR 3DC 100 ppm
[9] = 24 h, one day protectant (1DP), 25 ppm, rating of percent disease control, read-out: SETTTR 1DP 25 ppm
[10] = 24 h, one day protectant (1DP), rating of percent disease control, read-out: SEPTTR 1DP 100 ppm
[11] = 72 h, three day curative (3DC), 25 ppm, rating of percent disease control, read-out: SEPTTR 3DC 25 ppm
[12] = 72 h, three day curative (3DC), rating of percent disease control, read-out: SEPTTR 3DC 100 ppm
[13] = 24 h, one day protectant (1DP), 25 ppm (first 1DP column), percent control rating, read-out: SETTTR 1DP 25 ppm
[14] = 24 h, one day protectant (1DP), 25 ppm as printed (second 1DP column), percent control rating, read-out: SETTTR 1DP 25 ppm
[15] = 72 h, three day curative (3DC), 25 ppm, percent control rating, read-out: SEPTTR 3DC 25 ppm
[16] = 72 h, three day curative (3DC), percent control rating, read-out: SEPTTR 3DC 100 ppm

| SMILES | pest or weed control at 25 ppm [1] | pest or weed control at 100 ppm [2] | pest or weed control at 25 ppm [3] | pest or weed control at 100 ppm [4] | pest or weed control at 25 ppm [9] | pest or weed control at 100 ppm [10] | pest or weed control at 25 ppm [11] | pest or weed control at 100 ppm [12] | also measured |
| --- | --- | --- | --- | --- | --- | --- | --- | --- | --- |
| Fc1ccc(COc2ncc(F)c(/N=C/N3CCCC3)n2)cc1 [Compound 21, [5-Fluoro-2-(4-fluorobenzyloxy)pyrimidin-4-yl]-[1-pyrrolidin-1-yl-methylidene]amine] | 76 to 100% | 76 to 100% | 76 to 100% | 76 to 100% | – | – | – | – | – |
| O=C(Nc1ccsc1)Nc1nc(OCCc2ccc(Cl)cc2)ncc1F [Compound 697] | – | – | – | – | – | – | – | – | pest or weed control at 25 ppm [5]: 0 to 25%; pest or weed control at 100 ppm [6]: 0 to 25%; pest or weed control at 25 ppm [7]: 26 to 50%; pest or weed control at 100 ppm [8]: 26 to 50% |
| COCCOC(=O)Nc1nc(OCc2ccc(F)cc2)ncc1F [Compound 280] | – | – | – | – | 76 to 100% | 76 to 100% | 76 to 100% | 76 to 100% | – |
| CCOCNc1nc(OCc2cccc(C#N)c2)ncc1F [Compound 516] | – | – | – | – | 76 to 100% | 76 to 100% | 76 to 100% | 76 to 100% | – |
| CC(Oc1ncc(F)c(N)n1)c1ccc2ccccc2c1 (stereo not drawn) [Compound 57] | 76 to 100% | 76 to 100% | 76 to 100% | 76 to 100% | – | – | – | – | – |
| O/N=C\Nc1nc(OCc2ccc(F)cc2)ncc1F [Compound 22, N-[5-Fluoro-2-(4-fluorobenzyloxy)pyrimidin-4-yl]-N′-hydroxy-formamidine] | 76 to 100% | 76 to 100% | 76 to 100% | 76 to 100% | – | – | – | – | – |
| Cn1ncc(C(=O)Nc2nc(O)ncc2F)c1Cl [Compound 978] | – | – | – | – | – | – | – | – | pest or weed control at 25 ppm [13]: 0 to 25%; pest or weed control at 25 ppm [14]: 0 to 25%; pest or weed control at 25 ppm [15]: 0 to 25%; pest or weed control at 100 ppm [16]: 0 to 25% |
| CCCNC(=S)Nc1nc(OCc2ccccc2)ncc1F [Compound 678] | – | – | – | – | – | – | – | – | pest or weed control at 25 ppm [5]: 0 to 25%; pest or weed control at 100 ppm [6]: 76 to 100%; pest or weed control at 25 ppm [7]: 26 to 50%; pest or weed control at 100 ppm [8]: 76 to 100% |
| COc1cccc(COc2ncc(F)c(N3CCOCC3)n2)c1 [Compound 586] | – | – | – | – | – | – | – | – | pest or weed control at 25 ppm [5]: 0 to 25%; pest or weed control at 100 ppm [6]: 0 to 25%; pest or weed control at 25 ppm [7]: 0 to 25%; pest or weed control at 100 ppm [8]: 0 to 25% |
| COc1cccc(COc2ncc(F)c(N/N=C\c3ncc[nH]3)n2)c1 [Compound 557] | – | – | – | – | – | – | – | – | pest or weed control at 25 ppm [5]: 26 to 50%; pest or weed control at 100 ppm [6]: 0 to 25%; pest or weed control at 25 ppm [7]: 0 to 25%; pest or weed control at 100 ppm [8]: 0 to 25% |
| CON(C)c1nc(O)ncc1F [Compound 1096] | – | – | – | – | – | – | – | – | pest or weed control at 25 ppm [13]: 0 to 25%; pest or weed control at 25 ppm [14]: 0 to 25%; pest or weed control at 25 ppm [15]: 0 to 25%; pest or weed control at 100 ppm [16]: 76 to 100% |
| Fc1cnc(OCc2cccs2)nc1NCCc1ccccc1 [Compound 937] | – | – | – | – | – | – | – | – | pest or weed control at 50 ppm (24 h, % disease control rating, one day protectant, 50 ppm): 76 to 100%; pest or weed control at 200 ppm (24 h, % disease control rating, one day protectant, 200 ppm): 76 to 100% |
| Fc1ccc(COc2ncc(F)c(NCc3ccccc3F)n2)cc1 [Compound 30, (2-Fluorobenzyl)-[5-fluoro-2-(4-fluorobenzyloxy)pyrimidin-4-yl]amine] | 51 to 75% | 76 to 100% | 51 to 75% | 76 to 100% | – | – | – | – | – |
| Nc1nc(OCc2cc(Cl)cc(Cl)c2)ncc1F [Compound 404] | – | – | – | – | 76 to 100% | 76 to 100% | 76 to 100% | 76 to 100% | – |
| COc1cccc(COc2ncc(F)c(NSc3ccccc3[N+](=O)[O-])n2)c1 [Compound 85] | 26 to 50% | 76 to 100% | 76 to 100% | 76 to 100% | – | – | – | – | – |
| COc1cc(COc2ncc(F)c(NSc3ccccc3[N+](=O)[O-])n2)cc(OC)c1 [Compound 685] | – | – | – | – | – | – | – | – | pest or weed control at 25 ppm [5]: 0 to 25%; pest or weed control at 100 ppm [6]: 76 to 100%; pest or weed control at 25 ppm [7]: 0 to 25%; pest or weed control at 100 ppm [8]: 0 to 25% |
| Nc1nc(OC(c2ccc(F)cc2)c2ccc(F)cc2)ncc1F [Compound 355] | – | – | – | – | 76 to 100% | 76 to 100% | 76 to 100% | 76 to 100% | – |
| COc1ccccc1OC(=O)Oc1ncc(F)c(/N=C/N(C)C)n1 [Compound 444] | – | – | – | – | 76 to 100% | 76 to 100% | 76 to 100% | 76 to 100% | – |
| CC(=O)OCNc1nc(OCc2ccc(F)cc2)ncc1F [Compound 259] | – | – | – | – | 51 to 75% | 76 to 100% | 76 to 100% | 76 to 100% | – |
| Cc1ccc(COc2ncc(F)c(NS(C)(=O)=O)n2)cc1 [Compound 38, N-[5-Fluoro-2-(4-methylbenzyloxy)pyrimidin-4-yl]methanesulfonamide] | 26 to 50% | 26 to 50% | 0 to 25% | 26 to 50% | – | – | – | – | – |
